In ChEMBL document CHEMBL1137538, “Natural triterpenoids from Cecropia lyratiloba are cytotoxic to both sensitive and multidrug resistant leukemia cell lines” (Bioorg Med Chem, 2007):

What was measured:
K562 [1] = assay: Cytotoxicity against human K562 cells assessed as cell viability after 48 hrs by MTT assay; type: functional, cell-based; conditions: K562, 48 h
[2] = Cytotoxicity against human multidrug resistant Lucena1 cells assessed as cell viability after 48 hrs by MTT assay; type: functional, cell-based; conditions: Lucena 1, 48 h
HEp-2 = assay: Cytotoxicity against human HEp2 cells assessed as cell viability; type: functional, cell-based
Caco-2 = assay: Cytotoxicity against human Caco-2 cells assessed as cell viability; type: functional, cell-based
A549 = assay: Cytotoxicity against human A549 cells assessed as cell viability; type: functional, cell-based
K562 [3] = assay: Induction of apoptosis in human K562 cells assessed as DNA fragmentation at 10 ug/mL by FACS analysis; type: functional
K562 [4] = assay: Induction of apoptosis in human K562 cells assessed as DNA fragmentation at 25 ug/mL by FACS analysis; type: functional
K562 [5] = assay: Induction of apoptosis in human K562 cells assessed as DNA fragmentation at 50 ug/mL by FACS analysis; type: functional
[6] = Induction of apoptosis in human multidrug resistant Lucena1 cells assessed as DNA fragmentation at 10 ug/mL by FACS analysis; type: functional
[7] = Induction of apoptosis in human multidrug resistant Lucena1 cells assessed as DNA fragmentation at 25 ug/mL by FACS analysis; type: functional
[8] = Induction of apoptosis in human multidrug resistant Lucena1 cells assessed as DNA fragmentation at 50 ug/mL by FACS analysis; type: functional
K562 [9] = assay: Activation of caspase 3 in human K562 cells at 50 ug/mL after 4 hrs by flow cytometry; type: functional
K562 [10] = assay: Activation of caspase 3 in human K562 cells at 50 ug/mL after 8 hrs by flow cytometry; type: functional
K562 [11] = assay: Activation of caspase 3 in human K562 cells at 50 ug/mL after 12 hrs by flow cytometry; type: functional
K562 [12] = assay: Activation of caspase 3 in human K562 cells at 50 ug/mL after 24 hrs by flow cytometry; type: functional

C[C@@H]1CC[C@]2(C(=O)O)CC[C@]3(C)C(=CC[C@@H]4[C@@]5(C)C[C@@H](O)[C@H](O)C(C)(C)[C@@H]5CC[C@]43C)[C@@H]2[C@]1(C)O [TOMENTIC ACID]
IC50 (K562 [1]): 89.4 µM
IC50 [2]: 80.2 µM

CC[C@]1(O)C[C@H]2CN(CCc3c([nH]c4ccccc34)[C@@](C(=O)OC)(c3cc4c(cc3OC)N(C=O)[C@H]3[C@@](O)(C(=O)OC)[C@H](OC(C)=O)[C@]5(CC)C=CCN6CC[C@]43[C@@H]65)C2)C1 [VINCRISTINE]
IC50 (K562 [1]): 0.006 µM
IC50 [2]: > 0.1 µM

C[C@@H]1CC[C@]2(C(=O)O)CC[C@]3(C)C(=CC[C@@H]4[C@@]5(C)C[C@@H](O)[C@@H](O)C(C)(C)[C@@H]5CC[C@]43C)[C@@H]2[C@]1(C)O [EUSCAPHIC ACID]
IC50 (K562 [1]): 76.7 µM
IC50 [2]: 83.8 µM
IC50 (HEp-2): 106 µM
IC50 (Caco-2): 104 µM
IC50 (A549): 95.6 µM
Activity (K562 [3]): 13.58%
Activity (K562 [4]): 27.75%
Activity (K562 [5]): 62.93%
Activity [6]: 10.48%
Activity [7]: 30.87%
Activity [8]: 63.57%
Activity (K562 [9]): 8.04%
Activity (K562 [10]): 13.87%
Activity (K562 [11]): 18.69%
Activity (K562 [12]): 36.33%

CC(=O)O[C@@H]1C[C@]2(C)[C@H]3CC=C4[C@H]5[C@](C(=O)O)(CC[C@@H](C)[C@@]5(C)O)CC[C@@]4(C)[C@]3(C)CC[C@H]2C(C)(C)[C@H]1O
IC50 (K562 [1]): 38.4 µM
IC50 [2]: 41.4 µM

CC(=O)O[C@H]1[C@H](O)C[C@]2(C)[C@H]3CC=C4[C@H]5[C@](C(=O)O)(CC[C@@H](C)[C@@]5(C)O)CC[C@@]4(C)[C@]3(C)CC[C@H]2C1(C)C
IC50 (K562 [1]): 56.6 µM
IC50 [2]: 72.9 µM
